Inconclusive results and toxic doses are left out. No stated cut-off is given here; in the data, active means T/C of 150% or more; inactive means T/C below 125%.
Test system: L1210 leukemia ip in BDF1 mice, survival T/C
Assay: NCI In Vivo Anticancer Drug Screen. Data for tumor model L1210 Leukemia (intraperitoneal) in B6D2F1 (BDF1) mice
Conditions: endpoint: mean survival time, higher = longer survival
How it was run: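 Mice bearing the transplanted tumor received compound or vehicle. Survival of the treated group was divided by that of the vehicle-treated control group to give the ratio.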

[1] = dose: 100.0 mg/kg/injection, schedule: Q01DX009 (ip), vehicle: saline
[2] = dose: 100.0 mg/kg/injection, schedule: Q04DX003 (ip), vehicle: saline
[3] = dose: 200.0 mg/kg/injection, schedule: Q01DX009 (ip), vehicle: saline
[4] = dose: 200.0 mg/kg/injection, schedule: Q04DX003 (ip), vehicle: saline
[5] = dose: 400.0 mg/kg/injection, schedule: Q01DX009 (ip), vehicle: saline
[6] = dose: 400.0 mg/kg/injection, schedule: Q04DX003 (ip), vehicle: saline
[7] = dose: 100.0 mg/kg/injection, schedule: Q04DX003 (ip), vehicle: saline with Tween-80
[8] = dose: 200.0 mg/kg/injection, schedule: Q04DX003 (ip), vehicle: saline with Tween-80
[9] = dose: 400.0 mg/kg/injection, schedule: Q04DX003 (ip), vehicle: saline with Tween-80
[10] = dose: 100.0 mg/kg/injection, schedule: Q01DX009 (ip), vehicle: Klucel (hydroxypropylcellulose) (HPC)
[11] = dose: 200.0 mg/kg/injection, schedule: Q01DX009 (ip), vehicle: Klucel (hydroxypropylcellulose) (HPC)
[12] = dose: 12.5 mg/kg/injection, schedule: Q01DX009 (ip), vehicle: saline with Tween-80
[13] = dose: 100.0 mg/kg/injection, schedule: Q01DX001 (ip), vehicle: saline
[14] = dose: 200.0 mg/kg/injection, schedule: Q01DX001 (ip), vehicle: saline
[15] = dose: 400.0 mg/kg/injection, schedule: Q01DX001 (ip), vehicle: saline
[16] = dose: 100.0 mg/kg/injection, schedule: Q04DX002 (ip), vehicle: Klucel (hydroxypropylcellulose) (HPC)
[17] = dose: 200.0 mg/kg/injection, schedule: Q04DX002 (ip), vehicle: Klucel (hydroxypropylcellulose) (HPC)
[18] = dose: 400.0 mg/kg/injection, schedule: Q04DX002 (ip), vehicle: Klucel (hydroxypropylcellulose) (HPC)

Measured: T/C

COc1cccc(CN(C)CCC(=O)O)c1
inactive: [1] 97 % of control | [2] 105 % of control | [3] 94 % of control | [4] 109 % of control | [5] 101 % of control | [6] 105 % of control

CC(C)c1ccccc1OS(=O)(=O)c1ccccc1
inactive: [7] 91 % of control | [8] 95 % of control | [9] 98 % of control

NC(=O)C(c1ccccc1)c1ccccc1
inactive: [7] 93 % of control | [8] 100 % of control | [9] 94 % of control

c1ccc(C(CCN2CCCC2)c2ccccn2)cc1 (stereo unspecified)
inactive: dose: 44.0 mg/kg/injection, schedule: Q01DX Z (ip), vehicle: saline 90 % of control | dose: 66.0 mg/kg/injection, schedule: Q01DX Z (ip), vehicle: saline 89 % of control

Cc1ccccc1OCC(=O)Nc1cccc(NC(=O)COc2ccccc2C)c1
inactive: dose: 50.0 mg/kg/injection, schedule: Q04DX002 (sc), vehicle: olive oil, sesame oil, peanut oil 110 % of control | dose: 100.0 mg/kg/injection, schedule: Q04DX002 (sc), vehicle: olive oil, sesame oil, peanut oil 100 % of control | dose: 200.0 mg/kg/injection, schedule: Q04DX002 (sc), vehicle: olive oil, sesame oil, peanut oil 95 % of control

CC[C@@H](C(=O)[C@@H](C)[C@@H](O)[C@H](C)CCc1ccc(C)c(O)c1C(=O)O)[C@H]1O[C@](CC)([C@H]2CC[C@](O)(CC)[C@H](C)O2)C[C@@H]1C
inactive: dose: 3.12 mg/kg/injection, schedule: Q01DX009 (ip), vehicle: Klucel (hydroxypropylcellulose) (HPC) 93 % of control | dose: 6.25 mg/kg/injection, schedule: Q01DX009 (ip), vehicle: Klucel (hydroxypropylcellulose) (HPC) 96 % of control | dose: 12.5 mg/kg/injection, schedule: Q01DX009 (ip), vehicle: Klucel (hydroxypropylcellulose) (HPC) 94 % of control | dose: 25.0 mg/kg/injection, schedule: Q01DX009 (ip), vehicle: Klucel (hydroxypropylcellulose) (HPC) 94 % of control

O=S(=O)(/N=C1\C=CC(Br)=C\C1=N/S(=O)(=O)c1ccccc1)c1ccccc1
inactive: dose: 100.0 mg/kg/injection, schedule: Q01DX001 (ip), vehicle: Klucel (hydroxypropylcellulose) (HPC) 89 % of control | dose: 200.0 mg/kg/injection, schedule: Q01DX001 (ip), vehicle: Klucel (hydroxypropylcellulose) (HPC) 106 % of control | dose: 400.0 mg/kg/injection, schedule: Q01DX001 (ip), vehicle: Klucel (hydroxypropylcellulose) (HPC) 101 % of control

Nc1ccc(OCC(=O)N2CCOCC2)c(Cl)c1
inactive: [1] 100 % of control | [2] 110 % of control | [3] 102 % of control | [4] 98 % of control | [5] 96 % of control | [6] 101 % of control

COC(=O)CC(=O)c1ccc(S(=O)(=O)F)cc1
inactive: [10] 104 % of control | dose: 100.0 mg/kg/injection, schedule: Q04DX003 (ip), vehicle: Klucel (hydroxypropylcellulose) (HPC) 98 % of control | [11] 97 % of control | dose: 200.0 mg/kg/injection, schedule: Q04DX003 (ip), vehicle: Klucel (hydroxypropylcellulose) (HPC) 96 % of control | dose: 400.0 mg/kg/injection, schedule: Q01DX009 (ip), vehicle: Klucel (hydroxypropylcellulose) (HPC) 101 % of control | dose: 400.0 mg/kg/injection, schedule: Q04DX003 (ip), vehicle: Klucel (hydroxypropylcellulose) (HPC) 100 % of control

CCCCCCC(C)NCC(O)COc1cccc(C)c1 (stereo unspecified)
inactive: [12] 94 % of control | dose: 25.0 mg/kg/injection, schedule: Q01DX009 (ip), vehicle: saline with Tween-80 97 % of control

CC[N+](CC)(CC)CCCCCCCC[N+](CC)(CC)CC
inactive: dose: 0.78 mg/kg/injection, schedule: Q01DX009 (ip), vehicle: water 110 % of control | dose: 0.78 mg/kg/injection, schedule: Q04DX003 (ip), vehicle: saline 107 % of control | dose: 1.56 mg/kg/injection, schedule: Q01DX009 (ip), vehicle: water 111 % of control | dose: 1.56 mg/kg/injection, schedule: Q04DX003 (ip), vehicle: saline 104 % of control

CCCC/C=C/C#N
inactive: dose: 75.0 mg/kg/injection, schedule: Q01DX009 (ip), vehicle: saline 100 % of control | [13] 106 % of control | [2] 98 % of control | dose: 150.0 mg/kg/injection, schedule: Q01DX009 (ip), vehicle: saline 97 % of control | [14] 96 % of control | [4] 101 % of control | [15] 92 % of control | [6] 94 % of control

C=CC[P+](Cc1cccc(C)c1)(c1ccccc1)c1ccccc1
inactive: dose: 6.25 mg/kg/injection, schedule: Q01DX009 (ip), vehicle: saline with Tween-80 107 % of control | [12] 115 % of control

O=c1ccnc(SCc2ccc(Cl)cc2)[nH]1
inactive: dose: 110.0 mg/kg/injection, schedule: Q01DX Z (ip), vehicle: methylcellulose (MC) 87 % of control

Oc1cc(O)cc(O)c1
inactive: [1] 96 % of control | dose: 100.0 mg/kg/injection, schedule: Q04DX002 (ip), vehicle: saline 115 % of control | [3] 100 % of control | dose: 200.0 mg/kg/injection, schedule: Q04DX002 (ip), vehicle: saline 104 % of control | [5] 100 % of control | dose: 400.0 mg/kg/injection, schedule: Q04DX002 (ip), vehicle: saline 100 % of control

CC(=O)c1cccc(NS(=O)(=O)c2ccc(Cl)cc2)c1
inactive: [16] 94 % of control | [17] 100 % of control | [18] 91 % of control

COC(C)C1C([N+](C)(C)C)CS1(=O)=O (stereo unspecified)
inactive: dose: 75.0 mg/kg/injection, schedule: Q01DX001 (ip), vehicle: saline 97 % of control | dose: 150.0 mg/kg/injection, schedule: Q01DX001 (ip), vehicle: saline 94 % of control

Cc1ccc(S(=O)(=O)OCC(c2ccccc2)C(F)(F)F)cc1 (stereo unspecified)
inactive: dose: 100.0 mg/kg/injection, schedule: Q01DX001 (ip), vehicle: saline with Tween-80 94 % of control | dose: 200.0 mg/kg/injection, schedule: Q01DX001 (ip), vehicle: saline with Tween-80 100 % of control | dose: 400.0 mg/kg/injection, schedule: Q01DX001 (ip), vehicle: saline with Tween-80 101 % of control

C/C(=C\Br)OC1CCCCO1 (stereo unspecified)
inactive: dose: 100.0 mg/kg/injection, schedule: Q01DX009 (ip), vehicle: acetone 96 % of control | dose: 200.0 mg/kg/injection, schedule: Q01DX009 (ip), vehicle: acetone 96 % of control | dose: 400.0 mg/kg/injection, schedule: Q01DX009 (ip), vehicle: acetone 92 % of control

O=C(CCN1CCCCC1)C(O)(c1ccccc1)c1ccccc1
inactive: dose: 75.0 mg/kg/injection, schedule: Q01DX001 (ip), vehicle: other 103 % of control | dose: 150.0 mg/kg/injection, schedule: Q01DX001 (ip), vehicle: other 97 % of control | dose: 300.0 mg/kg/injection, schedule: Q01DX001 (ip), vehicle: other 104 % of control

CCCCCCCCCCCCCCCCCCCC(=O)COS(C)(=O)=O
inactive: [16] 88 % of control | [17] 88 % of control | [18] 88 % of control

O=S(=O)(Cc1nc2ccccc2[nH]1)Cc1nc2ccccc2[nH]1
inactive: dose: 50.0 mg/kg/injection, schedule: Q01DX001 (ip), vehicle: carboxymethylcellulose (CMC) 97 % of control | dose: 100.0 mg/kg/injection, schedule: Q01DX001 (ip), vehicle: carboxymethylcellulose (CMC) 92 % of control | dose: 200.0 mg/kg/injection, schedule: Q01DX001 (ip), vehicle: carboxymethylcellulose (CMC) 100 % of control | dose: 400.0 mg/kg/injection, schedule: Q01DX001 (ip), vehicle: carboxymethylcellulose (CMC) 92 % of control

O=C(O)c1cc(=O)n(CCCn2c(=O)cc(C(=O)O)[nH]c2=O)c(=O)[nH]1
inactive: dose: 100.0 mg/kg/injection, schedule: Q04DX002 (ip), vehicle: saline with Tween-80 93 % of control | dose: 200.0 mg/kg/injection, schedule: Q04DX002 (ip), vehicle: saline with Tween-80 101 % of control | dose: 400.0 mg/kg/injection, schedule: Q04DX002 (ip), vehicle: saline with Tween-80 89 % of control

C#CCC(C)OS(=O)(=O)c1ccc(C)cc1 (stereo unspecified)
inactive: [13] 98 % of control | [2] 93 % of control | [14] 102 % of control | [4] 93 % of control | [15] 98 % of control | [6] 91 % of control

CCNc1ccc([N+](=O)[O-])cn1
inactive: [10] 104 % of control | [11] 106 % of control

— PubChem BioAssay AID248 (DTP/NCI, 2004)
